Results on 20 molecules are retold here after US20020026052A1, “3-cyanoquinolines, 3-cyano-1,6-naphthyridines, and 3-cyano-1,7-naphthyridines as protein kinase inhibitors” (American Home Products Corporation, priority 2000, published 2002).

Regarding `CN1CCN(Cc2cccc(-c3ccc4c(Nc5ccc(Sc6nccn6C)c(Cl)c5)c(C#N)cnc4c3)n2)CC1` [Example 202, 4-{3-Chloro-4-[(1-methyl-1H-imidazol-2-yl)sulfanyl]anilino}-7-{6-[(4-methyl-1-piperazinyl)methyl]-2-pyridinyl}-3-quinolinecarbonitrile], the melting point was 157 to 159 °C.
To `Cn1ccnc1Sc1ccc(Nc2c(C#N)cnc3cc(-c4cc(CN5CCOCC5)ccn4)ccc23)cc1Cl` [Example 203, 4-({3-Chloro-4-[(1-methyl-1H-imidazol-2-yl)sulfanyl]phenyl}amino)-7-[4-(4-morpholinylmethyl)-2-pyridinyl]-3-quinolinecarbonitrile] belongs 205 to 207 °C.
As for `CCN1CCN(Cc2ccnc(-c3ccc4c(Nc5ccc(Sc6nccn6C)c(Cl)c5)c(C#N)cnc4c3)c2)CC1` [Example 205, 4-({3-Chloro-4-[(1-methyl-iH-imidazol-2-yl)sulfanyl]phenyl}amino)-7-{4-[(4-ethyl-1-piperazinyl)methyl]-2-pyridinyl}-3-quinolinecarbonitrile], the melting point is 150 to 153 °C.
To `CN1CCN(Cc2ccnc(-c3ccc4c(Nc5ccc(Sc6nccn6C)c(Cl)c5)c(C#N)cnc4c3)c2)CC1` [Example 206, 4-({3-Chloro-4-[(1-methyl-1H-imidazol-2-yl)sulfanyl]phenyl}amino)-7-{4-[(4-methyl-I -piperazinyl)methyl]-2-pyridinyl}-3-quinolinecarbonitrile] belongs 208 to 210 °C.
For the molecule `Cn1ccnc1Sc1ccc(Nc2c(C#N)cnc3cc(-c4ncccc4CN4CCOCC4)ccc23)cc1Cl` [Example 207, 4-({3-Chloro-4-[(1-methyl-1H-imidazol-2-yl)sulfanyl]phenyl}amino)-7-[3-(4-morpholinylmethyl)-2-pyridinyl]-3-quinolinecarbonitrile], the melting point was 195 °C (dec.).
`CCN1CCN(Cc2cccnc2-c2ccc3c(Nc4ccc(Sc5nccn5C)c(Cl)c4)c(C#N)cnc3c2)CC1` [Example 208, 4-({3-Chloro-4-[(1-methyl-1H-imldazol-2-yl)sulfanyl]phenyl}amino)-7-{3-[(4-ethyl-1-piperazinyl)methyl]-2-pyridinyl}-3-quinolinecarbonitrile]: the melting point was in the range of 187 to 190 °C.
To `CN1CCN(Cc2cccnc2-c2ccc3c(Nc4ccc(Sc5nccn5C)c(Cl)c4)c(C#N)cnc3c2)CC1` [Example 209, 4-({3-Chloro-4-[(I -methyl-1H-imidazol-2-yl)sulfanyl]phenyl}amino)-7-{3-[(4-methyl-1-piperazinyl)methyl]-2-pyridinyl}-3-quinolinecarbonitrile] belongs 217 to 220 °C.
On to `Cn1ccnc1Sc1ccc(Nc2c(C#N)cnc3cc(-c4ccc(N5CCC(N6CCCC6)CC5)nc4)ccc23)cc1Cl` [Example 210, 4-({3-Chloro-4-[(1-methyl-H-imidazol-2-yl)sulfanyl]phenyl}amino)-7-{6-[4-(1-pyrrolidinyl)-1-piperidinyl]-3-pyridinyl}-3-quinolinecarbonitrile], for which the melting point was 230 °C (dec.).
To `COCCN(C)c1ccc(-c2ccc3c(Nc4ccc(Sc5nccn5C)c(Cl)c4)c(C#N)cnc3c2)cn1` [Example 212, 4-({3-Chloro-4-[(1-methyl-1H-imidazol-2-yl)sulfanyl]phenyl}amino)-7-{6-[(2-methoxyethyl) (methyl)amino]-3-pyridinyl}-3-quinolinecarbonitrile] belongs 224 to 226 °C; to `CCOC(=O)C1CCN(c2ccc(-c3ccc4c(Nc5ccc(Sc6nccn6C)c(Cl)c5)c(C#N)cnc4c3)cn2)CC1` [Example 213, Ethyl 1-{5-[4-({3-chloro-4-[(1-methyl-iH-imidazol-2-yl)sulfanyl]phenyl}amino)-3-cyano-7-quinolinyl]-2-pyridinyl}-4-piperidinecarboxylate], 253 to 255 °C.
To `Cn1ccnc1Sc1ccc(Nc2c(C#N)cnc3cc(-c4ccc(N5CCC(O)CC5)nc4)ccc23)cc1Cl` [Example 214, 4-({3-Chloro-4-[(1-methyl-1H-imidazol-2-yl)sulfanyl]phenyl}amino)-7-[6-(4-hydroxy-1-piperidinyl)-3-pyridinyl]-3-quinolinecarbonitrile] belongs 178 to 180 °C; to `Cn1ccnc1Sc1ccc(Nc2c(C#N)cnc3cc(-c4ccc(N5CCN(CCO)CC5)nc4)ccc23)cc1Cl` [Example 215, 4-({3-Chloro-4-[(1-methyl-1H-irnidazol-2-yl)sulfanyl]phenyl}amino)-7-{6-[4-(2-hydroxyethyl)-1-piperazinyl]-3-pyridinyl}-3-quinolinecarbonitrile], 239 to 241 °C; to `CN(CCO)c1ccc(-c2ccc3c(Nc4ccc(Sc5nccn5C)c(Cl)c4)c(C#N)cnc3c2)cn1` [Example 216, 4-({3-Chloro-4-[(1-methyl-1H-imidazol-2-yl)sulfanyl]phenyl}amino)-7-{6-[(2-hydroxyethyl) (methyl)amino]-3-pyridinyl}-3-quinolinecarbonitrile], 228 °C (dec.).
To `Cn1ccnc1Sc1ccc(Nc2c(C#N)cnc3cc(-c4ccc(CN5CCN(CCO)CC5)cn4)ccc23)cc1Cl` [Example 217, 4-({3-chloro-4-[(1-methyl-1H-imidazol-2-yl)sulfanyl]phenyl}amino)-7-(5-{[4-(2-hydroxy-ethyl)-1-piperazinyl]-methyl}-2-pyridinyl)-3-quinolinecarbonitrile] belongs 160 to 163 °C.
As for `Cn1ccnc1Sc1ccc(Nc2c(C#N)cnc3cc(-c4ccc(CN5CCSCC5)cn4)ccc23)cc1Cl` [Example 219], the melting point lay in the range of 220 to 222 °C.
To `CCN1CCN(Cc2ccc(-c3ccc4c(Nc5ccc(Sc6nccn6C)c(Cl)c5)c(C#N)cnc4c3)cn2)CC1` [Example 220, 4-({3-Chloro-4-[(1-methyl-1H-imidazol-2-yl)sulfanyl]phenyl}amino)-7-1-{6-[(4-ethyl-1-piperazinyl)methyl]-3-pyridinyl}-3-quinolinecarbonitrile] belongs 192 to 195 °C.
The figure for `CN1CCN(Cc2ccc(-c3ccc4c(Nc5ccc(Sc6nccn6C)c(Cl)c5)c(C#N)cnc4c3)cn2)CC1` [Example 221, 4-({3-Chloro-4-[(1-methyl-1H-imidazol-2-yl)sulfanyl]phenyl}amino)-7-1-{6-[(4-methyl-1-piperazinyl)methyl]-3-pyridinyl}-3-quinolinecarbonitrile] is 228 to 230 °C; for `Cn1ccnc1Sc1ccc(Nc2c(C#N)cnc3cc(-c4ccc(CN5CCC(O)CC5)nc4)ccc23)cc1Cl` [Example 223, 4-({3-Chloro-4-[(1-methyl-1H-imidazol-2-yl)sulfanyl]phenyl}amino)-7-{6-[(4-hydroxy-1-piperidinyl)methyl]-3-pyridinyl}-3-quinolinecarbonitrile] it is 242 to 244 °C.
The figure for `COc1cc(Nc2c(C#N)cnc3cc(-c4cnc(CN5CCOCC5)n4C)ccc23)c(Cl)cc1Cl` [Example 226, 4-(2,4-Dichloro-5-methoxyanilino)-7-[1-methyl-2-(4-morpholinylmethyl)-1H-imidazol-5-yl]-3-quinolinecarbonitrile] is 140 to 143 °C; for `COc1cc(Nc2c(C#N)cnc3cc(-c4cnc(CN5CCN(C)CC5)n4C)ccc23)c(Cl)cc1Cl` [Example 227, 4-(2,4-Dichloro-5-methoxyanilino)-7-{1-methyl-2-[(4-methyl-1-piperazinyl)methyl]-1H-imidazol-5-yl}-3-quinolinecarbonitrile] it is 156 to 159 °C.
